The text below walks through data of ChEMBL document CHEMBL1135909, “Inhibition of protein-protein association by small molecules: approaches and progress” (J Med Chem, 2002).

Molecules are shown by their SMILES.

Experiment [1] is described as follows: Inhibition of Interleukin-1 alpha binding to Interleukin-1 receptor.
A further experiment has as its system Rattus norvegicus. The experiment can be described thus: The compound was tested in vivo for suppressing LPS-stimulated plasma NOx production in rats. Format: functional.
The target of experiment [2] is Nitric oxide synthase, inducible (Homo sapiens, UniProt P35228). The experiment can be described thus: Binding against the partially purified human Inducible nitric oxide synthase.
Chain of Nitric oxide synthase, inducible (P35228 whole entry): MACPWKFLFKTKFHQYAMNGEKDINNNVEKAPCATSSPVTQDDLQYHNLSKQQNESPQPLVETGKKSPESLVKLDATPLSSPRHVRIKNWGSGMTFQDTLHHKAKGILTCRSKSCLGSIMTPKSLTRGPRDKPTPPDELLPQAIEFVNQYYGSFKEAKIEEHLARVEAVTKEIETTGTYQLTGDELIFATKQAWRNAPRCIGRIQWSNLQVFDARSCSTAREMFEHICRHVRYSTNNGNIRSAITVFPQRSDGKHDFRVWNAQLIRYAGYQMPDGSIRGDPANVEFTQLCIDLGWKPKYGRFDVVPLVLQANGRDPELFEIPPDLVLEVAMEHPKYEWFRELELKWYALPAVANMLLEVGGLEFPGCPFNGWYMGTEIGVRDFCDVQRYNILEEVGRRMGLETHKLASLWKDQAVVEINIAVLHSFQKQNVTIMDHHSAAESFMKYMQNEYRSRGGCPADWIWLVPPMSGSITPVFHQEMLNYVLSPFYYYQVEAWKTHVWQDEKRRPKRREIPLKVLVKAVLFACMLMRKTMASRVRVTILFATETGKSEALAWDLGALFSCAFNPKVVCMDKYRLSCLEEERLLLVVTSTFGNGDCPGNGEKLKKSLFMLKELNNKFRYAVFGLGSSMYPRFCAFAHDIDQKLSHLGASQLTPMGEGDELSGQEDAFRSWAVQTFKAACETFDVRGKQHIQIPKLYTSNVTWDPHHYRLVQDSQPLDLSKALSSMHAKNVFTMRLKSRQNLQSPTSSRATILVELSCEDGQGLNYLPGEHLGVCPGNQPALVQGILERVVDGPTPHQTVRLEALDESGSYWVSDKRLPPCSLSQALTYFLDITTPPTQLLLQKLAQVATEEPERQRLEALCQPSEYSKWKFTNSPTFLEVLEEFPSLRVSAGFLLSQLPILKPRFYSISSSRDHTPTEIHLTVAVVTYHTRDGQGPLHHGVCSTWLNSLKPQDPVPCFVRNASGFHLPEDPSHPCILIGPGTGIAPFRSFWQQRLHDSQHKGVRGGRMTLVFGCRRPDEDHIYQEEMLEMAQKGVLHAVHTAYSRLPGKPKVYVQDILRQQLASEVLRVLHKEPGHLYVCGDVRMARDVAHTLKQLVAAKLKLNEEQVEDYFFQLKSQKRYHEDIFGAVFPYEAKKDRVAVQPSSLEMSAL
A further experiment has as its target Phosphodiesterase 1 (Homo sapiens, UniProt P54750+Q01064+Q14123). The experiment can be described thus: Inhibition of calmodulin-dependent PDE(3',5'-phosphodiesterase). Format: functional.
The target of experiment [3] is T1, Growth factor receptor-bound protein 2 (Homo sapiens, UniProt P62993). Briefly: Inhibition of c-Met interaction with Grb2 SH2 domain in Okajima (human gastric carcinoma) cells at 30 nM. Format: functional. The settings on record: Stomach.
Target sequence in this assay (P62993 whole entry, looked up, the tested form may be a part): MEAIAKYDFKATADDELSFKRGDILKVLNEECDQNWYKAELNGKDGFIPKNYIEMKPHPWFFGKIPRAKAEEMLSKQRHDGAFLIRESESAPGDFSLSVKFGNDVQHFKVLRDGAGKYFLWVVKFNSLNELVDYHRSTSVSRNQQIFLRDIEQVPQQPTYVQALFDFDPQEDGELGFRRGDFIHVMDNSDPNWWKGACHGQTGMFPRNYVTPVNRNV
Experiment [4] concerns the target T1, Growth factor receptor-bound protein 2. The experiment can be described thus: Inhibition of Growth factor receptor bound protein 2 SH2-domain binding.
Target sequence in this assay (P62993 whole entry, the tested form may be a part): as the sequence (P62993 whole entry, looked up, the tested form may be a part) above
The species entered for the next experiment is Oryctolagus cuniculus. The experiment can be described thus: Inhibition of the absorption of dentine slices by rabbit osteoclasts. It is filed as functional.
Experiment [5] has as its target T2, Proto-oncogene tyrosine-protein kinase Src (Homo sapiens, UniProt P12931). The experiment can be described thus: Inhibition of Src protein tyrosine kinase.
The target of experiment [6] is T3, Tumor necrosis factor receptor superfamily member 16 (Homo sapiens, UniProt P08138).
T3 sequence (P08138 whole entry): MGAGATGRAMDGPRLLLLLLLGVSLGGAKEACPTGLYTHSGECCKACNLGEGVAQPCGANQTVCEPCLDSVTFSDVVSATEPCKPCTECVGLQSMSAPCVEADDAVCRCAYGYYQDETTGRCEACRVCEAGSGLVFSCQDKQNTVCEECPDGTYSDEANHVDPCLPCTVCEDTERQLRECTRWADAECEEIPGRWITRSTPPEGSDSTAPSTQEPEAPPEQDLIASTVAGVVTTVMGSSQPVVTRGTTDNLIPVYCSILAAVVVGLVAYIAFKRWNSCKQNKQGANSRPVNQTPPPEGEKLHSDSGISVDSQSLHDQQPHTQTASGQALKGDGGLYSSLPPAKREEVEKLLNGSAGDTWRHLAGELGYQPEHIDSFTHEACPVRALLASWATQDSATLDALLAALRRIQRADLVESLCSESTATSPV
The experiment can be described thus: Competitive binding against Nerve growth factor to p75-NGF receptor in PC12 cells. It is filed as cell-based, PC-12.

Experiment [7] addresses T4, High affinity nerve growth factor receptor (Homo sapiens, UniProt P04629). Briefly: Inhibition of NGF-stimulated Trk A in PC12 cells. It is filed as cell-based, PC-12.
For experiment [8], the target named is T4, High affinity nerve growth factor receptor. Briefly: Inhibition of NGF-stimulated Trk A.
Experiment [9] concerns the target Apoptosis regulator Bcl-2 (Homo sapiens, UniProt P10415). The experiment can be described thus: Inhibitory activity against Bcl-2 functioning. Format: functional.
The subject of a further experiment is HL-60. The experiment can be described thus: Percent cell death of cultured HL60 human leukemia cells at dose of 50 uM. It is filed as functional.
A further experiment concerns CHO. Briefly: Inhibition of [125I]RANTES association with CCR5 expressed in CHO cells at 100 nM. Format: functional, cell-based. As to conditions: Cricetulus griseus.
The species entered for the next experiment is Homo sapiens. The experiment can be described thus: cells.
Experiment [10] in a line: Inhibition of thyroid-hormone induced bone resorption. It is filed as functional.
Experiment [11] addresses T2, Proto-oncogene tyrosine-protein kinase Src. Briefly: Inhibition of binding to Src SH2 domain. It is filed as functional.
A short description of experiment [12]: Selective inhibition of Src SH2 domain over ZAP-70 SH2 domain. Format: functional.

The IC50 is the concentration that gives 50% inhibition. For orientation: ED50 means the dose at which the effect has come halfway, by size or by number of responders. As a reminder, the Ki is a dissociation constant, usually derived from enzyme kinetics or from competition with a known ligand. Read a high Ki as a looser hold on the target.

T2 sequence (P12931 2-536 limits assumed): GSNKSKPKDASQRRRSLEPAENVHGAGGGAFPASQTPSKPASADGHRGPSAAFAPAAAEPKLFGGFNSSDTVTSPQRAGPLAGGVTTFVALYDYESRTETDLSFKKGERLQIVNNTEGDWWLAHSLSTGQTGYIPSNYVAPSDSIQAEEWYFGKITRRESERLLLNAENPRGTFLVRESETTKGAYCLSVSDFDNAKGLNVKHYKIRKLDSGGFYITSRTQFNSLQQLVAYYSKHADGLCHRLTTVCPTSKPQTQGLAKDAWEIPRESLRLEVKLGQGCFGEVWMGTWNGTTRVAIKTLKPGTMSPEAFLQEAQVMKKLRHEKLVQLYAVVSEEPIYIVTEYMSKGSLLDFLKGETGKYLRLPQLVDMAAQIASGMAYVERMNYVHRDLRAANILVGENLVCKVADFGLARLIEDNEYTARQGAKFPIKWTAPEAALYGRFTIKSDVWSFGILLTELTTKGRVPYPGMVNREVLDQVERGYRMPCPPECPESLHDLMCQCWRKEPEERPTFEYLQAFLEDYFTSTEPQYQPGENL
T4 sequence (P04629 whole entry): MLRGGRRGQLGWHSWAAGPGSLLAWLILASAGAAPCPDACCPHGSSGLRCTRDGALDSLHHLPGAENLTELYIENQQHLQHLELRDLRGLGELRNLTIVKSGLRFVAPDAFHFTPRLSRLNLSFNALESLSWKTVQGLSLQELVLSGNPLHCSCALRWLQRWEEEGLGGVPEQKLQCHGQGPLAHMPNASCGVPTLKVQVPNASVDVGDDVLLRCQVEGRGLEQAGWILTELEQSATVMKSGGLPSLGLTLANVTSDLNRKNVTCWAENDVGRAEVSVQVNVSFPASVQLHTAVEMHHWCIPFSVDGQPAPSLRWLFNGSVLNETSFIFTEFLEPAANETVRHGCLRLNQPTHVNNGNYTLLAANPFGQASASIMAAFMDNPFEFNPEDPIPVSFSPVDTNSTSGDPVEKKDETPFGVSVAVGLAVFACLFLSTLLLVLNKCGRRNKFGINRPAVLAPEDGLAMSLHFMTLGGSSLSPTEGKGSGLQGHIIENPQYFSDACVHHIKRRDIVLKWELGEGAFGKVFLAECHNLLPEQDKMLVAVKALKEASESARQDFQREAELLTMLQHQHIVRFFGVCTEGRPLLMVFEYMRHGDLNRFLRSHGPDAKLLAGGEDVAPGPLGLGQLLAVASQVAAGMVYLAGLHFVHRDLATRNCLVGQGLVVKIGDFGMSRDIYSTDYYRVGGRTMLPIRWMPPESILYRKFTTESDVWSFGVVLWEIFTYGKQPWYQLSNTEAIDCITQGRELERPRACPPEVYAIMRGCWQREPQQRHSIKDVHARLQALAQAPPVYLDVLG
Chain of Apoptosis regulator Bcl-2 (P10415 whole entry): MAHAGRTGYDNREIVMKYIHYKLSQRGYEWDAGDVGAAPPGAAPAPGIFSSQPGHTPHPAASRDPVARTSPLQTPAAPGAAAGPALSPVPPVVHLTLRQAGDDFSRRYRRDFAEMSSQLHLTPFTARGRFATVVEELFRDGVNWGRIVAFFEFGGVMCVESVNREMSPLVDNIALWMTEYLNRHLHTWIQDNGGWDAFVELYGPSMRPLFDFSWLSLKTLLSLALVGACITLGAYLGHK

In turn, `NCCc1ccc(OCCCN=C(N)N)cc1OCCc1ccccc1` yielded an IC50 in [1] of 770000 nM.
The compound `COC(=O)N1CCN(c2ccnc(-n3ccnc3)n2)C(CC(=O)NCc2ccc3c(c2)OCO3)C1` (stereo not drawn) yielded an ED50 in the experiment with Rattus norvegicus of 1.2 mg/kg. The IC50 in the experiment “Inhibitory activity” amounted to 0.6 nM. Affinity in experiment [2] was put at a Ki of 2.2 nM.
At Phosphodiesterase 1, `CCc1cc(-c2ccc(OCC(=O)O)cc2C(C)C)ccc1-c1cccc(Cc2ccc3ccccc3c2)c1` showed an IC50 of 20 nM.
On to `NC(=O)C[C@H](NC(=O)C1(NC(=O)[C@H](Cc2ccc(C(C(=O)O)C(=O)O)cc2)NC(=O)C(=O)O)CCCCC1)C(=O)NCCCc1ccc2ccccc2c1`, for which the Blockade in experiment [3] came to 50%. The compound further returned an IC50 in experiment [4] of 50 nM.
Regarding `CCCCCCOc1ccc(CCOc2cc(OCCCN)ccc2C(=O)NC(c2ccccc2)c2ccccc2)cc1`, the IC50 in [1] was less than 10000 nM.
Turning to `CC(=O)NC(Cc1ccc(P(=O)(O)O)c(P(=O)(O)O)c1)C(=O)N[C@H]1CCCCc2cc(OCC3CCCCC3)c(C(N)=O)cc21` (stereo partly drawn), the results for the IC50 (in the experiment listed under Oryctolagus cuniculus; in experiment [5]) were 1600 nM and 300 nM, respectively.
With `O=C1c2cccc3cc([N+](=O)[O-])cc(c23)C(=O)N1NCCO`, the IC50 amounted to 3720 nM in [6], 3720 nM in experiment [7] and 5880 nM in [8].
Consider `CCSCCCCC(c1ccc(O)cc1)C(C)(CC)c1ccc(O)cc1` (stereo not drawn), for which the IC50 in experiment [9] is roughly 9000 nM. Further, in the experiment on HL-60, the Cell death is given as greater than 90%.
Consider `Cc1ccc(-c2ccc3c(c2)C=C(C(=O)Nc2ccc(C[N+](C)(C)C4CCOCC4)cc2)CCC3)cc1`, for which, in the experiment with CHO, it took 1.4 nM to reach half-maximal inhibition (IC50).
In the experiment listed under Homo sapiens, `CC(=O)N[C@@H](Cc1ccccc1)C(=O)N[C@H]1CCCNC(=O)[C@H](CCCN=C(N)N)NC(=O)[C@H](Cc2c[nH]c3ccccc23)NC(=O)[C@@H](CC2CCCCC2)NC(=O)[C@@H]2CCCN2C1=O` yielded an IC50 of 20 nM.
Compound `O=C(CC1CNCCN1c1cc(Cl)nc(-n2ccnc2)n1)NCc1ccc2c(c1)OCO2` (stereo not drawn) displayed an IC50 in the experiment “Inhibitory activity” of 1.1 nM.
Consider `CCc1cc(-c2ccc(OCC(=O)O)cc2C(C)C)ccc1-c1cccc(Cc2cccc3ccccc23)c1`, for which the IC50 against Phosphodiesterase 1 was 9 nM.
`CCCCCCOc1cccc(CCOc2cc(OCCCN)ccc2C(=O)NC2c3ccccc3-c3ccccc32)c1` came in with a concentration for half-maximal inhibition (IC50) in [1] of less than 10000 nM.
Consider `CC(=O)NC(Cc1ccc(C(=O)O)c(C=O)c1)C(=O)N[C@H]1CCCCc2cc(OCC3CCCCC3)c(C(N)=O)cc21` (stereo partly drawn), for which the values for the IC50 in experiment [10], in [11] and in experiment [12] were 42900 nM, 5500 nM and 60000 nM, respectively.
